This is an account of results in ChEMBL document CHEMBL2331534, “Design, synthesis and biological evaluation of novel hybrid compounds of imidazole scaffold-based 2-benzylbenzofuran as potent anticancer agents” (Eur J Med Chem, 2013).

For experiment [1], the system named is MCF7. As to the kind of experiment: Ratio of compound IC50 to DDP IC50 for growth inhibition of human MCF7 cells. The format is functional.
For experiment [2], the system named is SMMC-7721. The experiment can be described thus: Cytotoxicity against human SMMC7721 cells assessed as growth inhibition after 48 hrs by MTT assay. The format is functional, cell-based. To be noted: SMMC-7721, 48 h. Background: Tetrazolium assays rely on reduction of a dye to a coloured formazan, in cell work by metabolically active cells.
The test system of another experiment is HL-60. The experiment can be described thus: Cytotoxicity against human HL60 cells assessed as growth inhibition after 48 hrs by MTT assay. The format is functional, cell-based. To be noted: HL-60, 48 h.
The next experiment concerns A549. The experiment can be described thus: Cytotoxicity against human A549 cells assessed as growth inhibition after 48 hrs by MTT assay. The format is functional, cell-based. To be noted: A549, 48 h.
A further experiment deals with SW480. As to the kind of experiment: Cytotoxicity against human SW480 cells assessed as growth inhibition after 48 hrs by MTT assay. The format is functional, cell-based. To be noted: SW480, 48 h.
Experiment [3] concerns MCF7. The experiment can be described thus: Cytotoxicity against human MCF7 cells assessed as growth inhibition after 48 hrs by MTT assay. The format is functional, cell-based. To be noted: MCF7, 48 h.
Experiment [4] relates to SMMC-7721. The experiment can be described thus: Ratio of compound IC50 to DDP IC50 for growth inhibition of human SMMC7721 cells. The format is functional.

One may read the IC50 as the concentration needed to halve the response being measured. As for `COc1ccc(C(=O)C[n+]2cn(C(c3ccccc3)c3cc4ccccc4o3)c3ccccc32)cc1.[Br-]` (configuration not stated), the “Ratio IC50” value with MCF7 [1] is 4.6. Also, the IC50 with SMMC-7721 [2] is 3.09 µM; in the experiment on HL-60, 1.02 µM; with A549, 3.57 µM; in the experiment on SW480, 3.55 µM; in the experiment on MCF7 [3] it was 2.29 µM.
For `O=C(C[n+]1cn(C(c2ccccc2)c2cc3ccccc3o2)c2ccccc21)c1ccc2ccccc2c1.[Br-]` (configuration not stated), the “Ratio IC50” value in the experiment on SMMC-7721 [4] is reported as 6.3. For the same compound, the half-maximal inhibitory concentration (IC50) stood at 2.35 µM in the experiment on SMMC-7721 [2]; 1.12 µM with HL-60; 3.43 µM in the experiment with A549; 3.18 µM with SW480; 3.13 µM in the experiment with MCF7 [3].
As for `CS(=O)(=O)OC(c1ccccc1)c1cc2ccccc2o1` (configuration not stated), the IC50 with SMMC-7721 [2], in the experiment on HL-60, in the experiment on A549, in the experiment on SW480 and in the experiment on MCF7 [3] was more than 40 µM each time.
With `c1ccc(C(c2cc3ccccc3o2)n2ccnc2)cc1` (configuration not stated), the IC50 in the experiment with SMMC-7721 [2], with HL-60, in the experiment on A549, in the experiment with SW480 and in the experiment on MCF7 [3] was more than 40 µM in each case.
Regarding `Cc1nccn1C(c1ccccc1)c1cc2ccccc2o1` (configuration not stated), the half-maximal inhibitory concentration (IC50) in the experiment with SMMC-7721 [2], in the experiment on HL-60, in the experiment on A549, in the experiment with SW480 and with MCF7 [3] was more than 40 µM in each case.
Regarding `CCc1nccn1C(c1ccccc1)c1cc2ccccc2o1` (configuration not stated), the IC50 in the experiment with SMMC-7721 [2], in the experiment with HL-60, in the experiment on A549, in the experiment with SW480 and with MCF7 [3] was more than 40 µM throughout.
